This note sets out measurements from ChEMBL document CHEMBL3132769, “Fragment growing to retain or alter the selectivity of anchored kinase hinge-binding fragments” (Medchemcomm, 2014).

The target in assay [1] is Hepatocyte growth factor receptor (Homo sapiens) (UniProt P08581). Particulars: 0.1 uM.
Description: Inhibition of human MET cytoplasmic domain expressed in baculovirus assessed as substrate phosphorylation using fluorescence-labelled peptides as substrate at 0.1 uM after 90 mins by microfluidic peptide phosphorylation assay
Assay [2] has as its target T1, cGMP-dependent protein kinase 1 (Homo sapiens) (UniProt Q13976).
T1 sequence (whole entry): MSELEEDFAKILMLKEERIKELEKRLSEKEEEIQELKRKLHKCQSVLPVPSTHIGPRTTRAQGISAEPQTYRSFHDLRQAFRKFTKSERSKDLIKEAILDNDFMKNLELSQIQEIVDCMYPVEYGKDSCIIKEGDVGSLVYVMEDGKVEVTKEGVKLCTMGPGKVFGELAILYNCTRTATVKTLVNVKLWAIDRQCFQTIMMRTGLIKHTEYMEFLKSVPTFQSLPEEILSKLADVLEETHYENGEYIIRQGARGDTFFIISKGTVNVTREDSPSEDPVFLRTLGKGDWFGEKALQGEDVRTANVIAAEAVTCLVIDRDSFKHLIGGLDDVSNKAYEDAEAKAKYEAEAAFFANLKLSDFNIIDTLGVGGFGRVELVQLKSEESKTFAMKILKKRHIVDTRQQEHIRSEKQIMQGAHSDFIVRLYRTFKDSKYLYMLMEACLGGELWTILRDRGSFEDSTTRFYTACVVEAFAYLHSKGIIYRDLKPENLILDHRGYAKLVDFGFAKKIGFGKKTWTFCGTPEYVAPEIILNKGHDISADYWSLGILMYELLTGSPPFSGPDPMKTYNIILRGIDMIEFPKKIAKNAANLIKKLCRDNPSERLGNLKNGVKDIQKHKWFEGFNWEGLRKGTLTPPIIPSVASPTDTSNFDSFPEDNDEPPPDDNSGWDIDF
Particulars: 0.1 uM.
Description: Inhibition of human full length PKG-1a expressed in baculovirus assessed as substrate phosphorylation using fluorescence-labelled peptides as substrate at 0.1 uM after 90 mins by microfluidic peptide phosphorylation assay

For assay [3], the target named is MAP/microtubule affinity-regulating kinase 3 (Homo sapiens) (UniProt P27448). Description: Inhibition of human full length c-TAK1 expressed in Escherichia coli cell assessed as substrate phosphorylation using fluorescence-labelled peptides as substrate at 9 uM after 90 mins by microfluidic peptide phosphorylation assay.
Assay [4] addresses T2, Serine/threonine-protein kinase Sgk3 (Homo sapiens) (UniProt Q96BR1).
T2 sequence (whole entry): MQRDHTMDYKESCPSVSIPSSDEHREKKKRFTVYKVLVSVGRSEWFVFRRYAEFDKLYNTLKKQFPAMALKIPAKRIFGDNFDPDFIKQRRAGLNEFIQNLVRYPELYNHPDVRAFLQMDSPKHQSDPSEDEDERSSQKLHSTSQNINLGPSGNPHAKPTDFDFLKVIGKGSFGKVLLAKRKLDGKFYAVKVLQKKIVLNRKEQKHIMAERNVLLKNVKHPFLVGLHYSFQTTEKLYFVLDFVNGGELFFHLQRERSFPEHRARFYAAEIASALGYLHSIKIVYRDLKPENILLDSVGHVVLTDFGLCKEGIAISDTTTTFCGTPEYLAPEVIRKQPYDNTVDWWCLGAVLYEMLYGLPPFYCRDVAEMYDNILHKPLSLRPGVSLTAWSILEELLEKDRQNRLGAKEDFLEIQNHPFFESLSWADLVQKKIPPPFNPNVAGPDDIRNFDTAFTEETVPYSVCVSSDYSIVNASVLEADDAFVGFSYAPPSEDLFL
Description: Inhibition of human full length SGK3 expressed in baculovirus assessed as substrate phosphorylation using fluorescence-labelled peptides as substrate at 9 uM after 90 mins by microfluidic peptide phosphorylation assay.

Assay [5] deals with Tyrosine-protein kinase ABL1 (Homo sapiens), P00519 [Q252H]. Description: Inhibition of human truncated ABL Q252H mutant expressed in baculovirus assessed as substrate phosphorylation using fluorescence-labelled peptides as substrate at 9 uM after 90 mins by microfluidic peptide phosphorylation assay.
Assay [6] has as its target T3, Serine/threonine-protein kinase Sgk2 (Homo sapiens) (UniProt Q9HBY8).
T3 sequence (whole entry): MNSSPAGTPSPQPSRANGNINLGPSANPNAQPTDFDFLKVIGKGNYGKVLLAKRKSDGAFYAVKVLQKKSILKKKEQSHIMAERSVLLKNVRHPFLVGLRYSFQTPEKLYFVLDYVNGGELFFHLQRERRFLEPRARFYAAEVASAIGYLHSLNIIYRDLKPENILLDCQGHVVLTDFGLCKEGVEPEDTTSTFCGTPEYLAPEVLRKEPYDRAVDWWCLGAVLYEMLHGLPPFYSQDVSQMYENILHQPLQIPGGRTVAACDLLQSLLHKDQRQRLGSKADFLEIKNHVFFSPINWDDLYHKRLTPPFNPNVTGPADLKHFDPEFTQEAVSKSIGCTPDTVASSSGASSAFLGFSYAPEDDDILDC
Kind of assay: Inhibition of human full length SGK2 expressed in baculovirus assessed as substrate phosphorylation using fluorescence-labelled peptides as substrate at 95 uM after 90 mins by microfluidic peptide phosphorylation assay.

The target in assay [7] is T4, Calcium/calmodulin-dependent protein kinase type IV (Homo sapiens) (UniProt Q16566).
T4 sequence (whole entry): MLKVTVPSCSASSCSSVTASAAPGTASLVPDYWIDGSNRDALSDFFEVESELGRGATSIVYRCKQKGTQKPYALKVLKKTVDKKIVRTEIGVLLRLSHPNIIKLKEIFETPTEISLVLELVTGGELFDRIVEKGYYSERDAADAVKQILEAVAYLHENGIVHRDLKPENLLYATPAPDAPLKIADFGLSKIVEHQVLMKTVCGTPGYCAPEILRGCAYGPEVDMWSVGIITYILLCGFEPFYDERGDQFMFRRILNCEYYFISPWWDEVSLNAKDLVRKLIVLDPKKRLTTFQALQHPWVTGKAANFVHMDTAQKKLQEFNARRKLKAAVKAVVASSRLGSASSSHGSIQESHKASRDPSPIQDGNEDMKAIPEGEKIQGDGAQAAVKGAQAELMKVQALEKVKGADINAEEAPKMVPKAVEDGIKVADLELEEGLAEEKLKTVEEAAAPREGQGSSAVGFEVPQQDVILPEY
Description: Inhibition of human full length CAMK4 expressed in baculovirus assessed as substrate phosphorylation using fluorescence-labelled peptides as substrate at 95 uM after 90 mins by microfluidic peptide phosphorylation assay.

Assay [8] has as its target MAP kinase-activated protein kinase 3 (Homo sapiens) (UniProt Q16644). Kind of assay: Inhibition of human full length MAPKAPK3 expressed in Escherichia coli cell assessed as substrate phosphorylation using fluorescence-labelled peptides as substrate at 8 uM after 90 mins by microfluidic peptide phosphorylation assay.
In assay [9] the target is Fibroblast growth factor receptor 1 (Homo sapiens) (UniProt P11362). Kind of assay: Inhibition of human FGFR1 catalytic domain expressed in baculovirus assessed as substrate phosphorylation using fluorescence-labelled peptides as substrate at 70 uM after 90 mins by microfluidic peptide phosphorylation assay.
The target in assay [10] is RAC-alpha serine/threonine-protein kinase (Homo sapiens) (UniProt P31749). Particulars: 1000 uM.
Sequence of RAC-alpha serine/threonine-protein kinase (Homo sapiens) (P31749 whole entry): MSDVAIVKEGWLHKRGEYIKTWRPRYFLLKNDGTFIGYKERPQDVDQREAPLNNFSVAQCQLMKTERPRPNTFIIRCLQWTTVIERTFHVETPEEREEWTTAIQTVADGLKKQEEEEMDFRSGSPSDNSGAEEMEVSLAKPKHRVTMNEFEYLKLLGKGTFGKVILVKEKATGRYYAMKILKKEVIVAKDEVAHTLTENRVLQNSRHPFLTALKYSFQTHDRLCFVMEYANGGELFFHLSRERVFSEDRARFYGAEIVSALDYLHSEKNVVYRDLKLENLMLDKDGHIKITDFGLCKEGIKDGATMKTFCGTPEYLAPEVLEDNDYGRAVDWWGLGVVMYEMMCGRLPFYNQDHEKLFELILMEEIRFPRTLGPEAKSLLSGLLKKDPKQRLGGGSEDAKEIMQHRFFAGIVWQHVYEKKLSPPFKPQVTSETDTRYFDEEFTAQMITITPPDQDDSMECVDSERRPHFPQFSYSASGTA
Description: Inhibition of human AKT1 catalytic domain expressed in baculovirus assessed as substrate phosphorylation using fluorescence-labelled peptides as substrate at 1000 uM after 90 mins by microfluidic peptide phosphorylation assay

Sequence of Fibroblast growth factor receptor 1 (Homo sapiens) (P11362 22-822 limits assumed): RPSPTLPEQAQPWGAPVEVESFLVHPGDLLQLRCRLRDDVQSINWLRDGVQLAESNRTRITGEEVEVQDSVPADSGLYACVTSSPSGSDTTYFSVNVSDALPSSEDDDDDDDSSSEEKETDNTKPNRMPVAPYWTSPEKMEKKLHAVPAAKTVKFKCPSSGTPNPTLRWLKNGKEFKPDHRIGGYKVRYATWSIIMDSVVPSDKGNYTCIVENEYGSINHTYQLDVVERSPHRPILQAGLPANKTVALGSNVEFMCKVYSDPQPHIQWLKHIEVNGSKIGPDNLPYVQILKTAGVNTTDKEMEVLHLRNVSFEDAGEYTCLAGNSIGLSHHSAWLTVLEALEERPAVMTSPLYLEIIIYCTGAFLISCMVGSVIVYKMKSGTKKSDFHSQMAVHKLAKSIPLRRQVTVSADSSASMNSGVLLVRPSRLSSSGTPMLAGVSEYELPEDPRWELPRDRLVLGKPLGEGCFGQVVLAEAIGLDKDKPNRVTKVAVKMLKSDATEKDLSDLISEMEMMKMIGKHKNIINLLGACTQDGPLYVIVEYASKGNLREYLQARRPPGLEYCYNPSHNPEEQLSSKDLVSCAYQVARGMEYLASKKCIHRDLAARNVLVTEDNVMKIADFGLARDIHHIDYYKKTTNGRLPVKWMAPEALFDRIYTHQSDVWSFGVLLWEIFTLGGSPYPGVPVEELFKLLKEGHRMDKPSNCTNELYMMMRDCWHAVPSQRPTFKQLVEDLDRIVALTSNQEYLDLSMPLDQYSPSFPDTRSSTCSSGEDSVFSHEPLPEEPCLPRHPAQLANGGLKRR
Sequence of MAP kinase-activated protein kinase 3 (Homo sapiens) (Q16644 whole entry, looked up, the tested form may be a part): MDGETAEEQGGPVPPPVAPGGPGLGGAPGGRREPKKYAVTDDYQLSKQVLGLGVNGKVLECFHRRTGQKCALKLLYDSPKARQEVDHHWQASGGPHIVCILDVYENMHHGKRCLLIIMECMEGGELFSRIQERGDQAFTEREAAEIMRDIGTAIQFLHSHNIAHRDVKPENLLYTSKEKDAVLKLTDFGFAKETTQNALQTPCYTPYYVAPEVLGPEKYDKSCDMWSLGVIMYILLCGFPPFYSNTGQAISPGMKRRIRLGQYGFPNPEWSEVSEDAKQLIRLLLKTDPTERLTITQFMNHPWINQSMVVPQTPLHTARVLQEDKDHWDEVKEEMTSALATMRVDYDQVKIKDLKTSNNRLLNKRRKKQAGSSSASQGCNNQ
Sequence of Hepatocyte growth factor receptor (Homo sapiens) (P08581 whole entry): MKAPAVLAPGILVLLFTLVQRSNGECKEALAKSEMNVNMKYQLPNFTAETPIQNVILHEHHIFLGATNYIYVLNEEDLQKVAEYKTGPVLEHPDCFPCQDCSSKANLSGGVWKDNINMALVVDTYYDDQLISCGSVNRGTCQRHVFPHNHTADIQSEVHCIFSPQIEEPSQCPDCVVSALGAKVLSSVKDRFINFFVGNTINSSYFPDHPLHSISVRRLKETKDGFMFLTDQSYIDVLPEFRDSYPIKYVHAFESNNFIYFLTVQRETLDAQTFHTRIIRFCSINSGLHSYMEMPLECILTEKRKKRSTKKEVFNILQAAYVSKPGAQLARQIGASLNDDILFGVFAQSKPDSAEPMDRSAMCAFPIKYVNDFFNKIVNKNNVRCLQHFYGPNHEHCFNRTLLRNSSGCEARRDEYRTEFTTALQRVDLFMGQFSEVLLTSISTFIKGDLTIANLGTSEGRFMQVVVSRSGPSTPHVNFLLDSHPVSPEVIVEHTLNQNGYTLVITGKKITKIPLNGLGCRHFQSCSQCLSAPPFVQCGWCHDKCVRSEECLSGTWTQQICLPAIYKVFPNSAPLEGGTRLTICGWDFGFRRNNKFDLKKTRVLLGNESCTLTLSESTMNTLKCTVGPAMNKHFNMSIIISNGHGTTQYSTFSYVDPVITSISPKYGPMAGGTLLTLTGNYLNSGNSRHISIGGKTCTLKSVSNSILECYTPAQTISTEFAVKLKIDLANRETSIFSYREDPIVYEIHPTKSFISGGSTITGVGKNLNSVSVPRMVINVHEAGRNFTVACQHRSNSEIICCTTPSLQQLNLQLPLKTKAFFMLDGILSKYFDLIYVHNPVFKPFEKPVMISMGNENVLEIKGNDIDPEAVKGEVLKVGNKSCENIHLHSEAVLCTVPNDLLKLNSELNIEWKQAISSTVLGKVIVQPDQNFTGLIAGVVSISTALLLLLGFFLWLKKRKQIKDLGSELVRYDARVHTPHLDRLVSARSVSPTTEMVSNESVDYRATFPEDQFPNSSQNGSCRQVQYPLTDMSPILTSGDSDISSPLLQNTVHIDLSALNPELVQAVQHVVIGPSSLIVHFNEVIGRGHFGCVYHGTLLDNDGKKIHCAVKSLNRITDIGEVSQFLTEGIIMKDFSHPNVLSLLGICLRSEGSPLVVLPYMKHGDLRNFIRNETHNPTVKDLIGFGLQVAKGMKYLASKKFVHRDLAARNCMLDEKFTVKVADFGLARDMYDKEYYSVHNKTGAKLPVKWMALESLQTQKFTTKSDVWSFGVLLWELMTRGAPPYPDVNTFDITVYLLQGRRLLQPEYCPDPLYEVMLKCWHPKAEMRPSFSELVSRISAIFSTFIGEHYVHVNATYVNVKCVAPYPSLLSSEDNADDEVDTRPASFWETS
Sequence of MAP/microtubule affinity-regulating kinase 3 (Homo sapiens) (P27448 whole entry, looked up): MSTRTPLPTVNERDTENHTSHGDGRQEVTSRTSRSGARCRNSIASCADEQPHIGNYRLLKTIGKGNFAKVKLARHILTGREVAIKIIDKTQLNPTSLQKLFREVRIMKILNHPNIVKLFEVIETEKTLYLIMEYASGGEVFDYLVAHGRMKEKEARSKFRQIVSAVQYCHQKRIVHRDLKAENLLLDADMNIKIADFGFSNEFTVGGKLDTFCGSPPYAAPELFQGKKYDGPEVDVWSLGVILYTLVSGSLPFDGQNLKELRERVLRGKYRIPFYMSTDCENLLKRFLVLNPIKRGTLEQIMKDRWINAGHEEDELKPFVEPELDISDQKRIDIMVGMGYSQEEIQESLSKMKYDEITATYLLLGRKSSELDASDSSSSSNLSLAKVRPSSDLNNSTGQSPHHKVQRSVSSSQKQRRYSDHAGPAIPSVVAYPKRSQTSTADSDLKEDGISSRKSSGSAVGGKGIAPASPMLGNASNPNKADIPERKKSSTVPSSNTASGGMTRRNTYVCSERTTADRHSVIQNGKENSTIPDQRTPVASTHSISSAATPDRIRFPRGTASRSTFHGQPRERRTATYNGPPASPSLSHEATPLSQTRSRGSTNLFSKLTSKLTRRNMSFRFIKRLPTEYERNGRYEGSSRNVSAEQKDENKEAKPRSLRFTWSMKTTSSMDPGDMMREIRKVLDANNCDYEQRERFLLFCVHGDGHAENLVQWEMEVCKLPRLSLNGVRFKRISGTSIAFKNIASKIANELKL

Regarding `C[C@H](CN(C)C)Oc1nc(Nc2cc3cccc(Cl)c3cn2)cnc1C#N`, the inhibition in assay [1] and in assay [2] was 0% in each case.
Regarding `NCC1CN(c2ncnc3[nH]c4cnccc4c23)CCO1` (stereo not given), the inhibition – broadly, the share of the control response that was lost under treatment – in assay [3] is 30%; in [4], 44%; in assay [5], 6%.
Consider `NCCc1ccc(-c2ncnc3[nH]cnc23)cc1`, for which the inhibition is 50.5% in assay [6] and 85% in assay [7].
On to `NCC1CCN(c2ncnc3[nH]ccc23)CC1`, for which the inhibition in assay [8] came to 81.5%.
Regarding `CNCc1ccc(-c2ncnc3[nH]cnc23)cc1`, in assay [9], the inhibition was 43%.
As to `c1cnc2[nH]ccc2c1`, the inhibition in assay [10] was found to be 65.5%.
